Results: patent publication US11046681B2, “Substituted piperidines for the treatment of cancer” (LES LABORATOIRES SERVIER, priority 2016, dated 2021)

How the values were obtained:
[1] = target: His-His-USP7 (aa208-560, [C315A]) (Homo sapiens (Human), UniProt Q93009, C315A); test: Evaluation of the inhibition of USP7 by Fluorescence Intensity (FLINT) readings; type: biochemical; conditions: 0.25 nM USP7, 60 minutes at 30° C. preincubation, 500 nM Ubiquitin-Rhodamine-110 substrate, 50% reduction in kinetic rate
Protocol: USP7 activity was measured using Rhodamine-110 c-terminal labelled Ubiquitin as a substrate (Viva Biosciences). Incubation with USP7 results in the release of Rhodamine-110 leading to an increase in fluorescence which can be used in the continuous measurement of USP7 activity.
The USP7 reactions were performed in a 50 μL volume, in 384 well black solid low binding plates (Corning #3575). The reaction buffer consisted of 100 mM Bicine pH 8.0, 0.01% TritonX100, 1 mM TCEP, and 10% DMSO.
0.25 nM His-His-USP7 (aa208-560, [C315A]) was incubated with compound (final concentration 10% DMSO) for 60 minutes at 30° C. The reaction was then initiated by the addition of 500 nM Ubiquitin-Rhodamine-110 substrate and the plate read every 3 minutes for 21 minutes to measure the release of Rhodamine-110. Fluorescence Intensity (FLINT) readings were measured using a […] Neo plate reader (Ex.485 nm, Em.535 nm).
The inhibition of increasing doses of compound was expressed as a percentage reduction in kinetic rate compared to the kinetic rates established between ‘DMSO only’ and ‘total inhibition’ controls (no USP7). The inhibitory concentrations that gave a 50% reduction in kinetic rate (IC50) were determined, from 11-point dose response curves, in XL-Fit using a 4-Parameter Logistic Model (Sigmoidal Dose-Response Model).

[2] = system: MM1S multiple myeloma tumour cell line; test: In vitro cytotoxicity, Microculture Tetrazolium Assay (MTT) on MM1S cells; type: cell-based; conditions: Homo sapiens, MM1.S, exposed for 96 hours, cell viability by MTT
Protocol: The cytotoxicity studies were carried out on the MM1S multiple myeloma tumour cell line. The cells are distributed onto microplates and exposed to the test compounds for 96 hours. The cell viability is then quantified by a colorimetric assay, the Microculture Tetrazolium Assay (Cancer Res., 1987, 47, 939-942).

Chain of His-His-USP7 (aa208-560, [C315A]) (Q93009 208-560 C315A): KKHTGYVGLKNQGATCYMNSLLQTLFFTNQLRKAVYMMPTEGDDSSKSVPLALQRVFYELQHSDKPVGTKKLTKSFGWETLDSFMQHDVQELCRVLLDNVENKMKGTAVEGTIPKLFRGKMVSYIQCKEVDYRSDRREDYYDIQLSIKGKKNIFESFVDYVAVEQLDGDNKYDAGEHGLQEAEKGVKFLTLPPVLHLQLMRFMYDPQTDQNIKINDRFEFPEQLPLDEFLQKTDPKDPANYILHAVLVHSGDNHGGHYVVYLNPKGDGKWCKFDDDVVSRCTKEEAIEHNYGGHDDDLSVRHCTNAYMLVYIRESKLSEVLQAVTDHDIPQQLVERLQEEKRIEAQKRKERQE

SMILES	IC50 [1] [nM]	IC50 [2] [nM]
COc1ccc(-n2ccc3c(=O)n(CC4(O)CCN(C(=O)[C@@H]5CCN(C(=O)OC(C)(C)C)C[C@H]5c5ccccc5)CC4)cnc32)cc1 [EXAMPLE 40, tert-butyl (3R,4R)-4-[4-hydroxy-4-[[7-(4-methoxyphenyl)-4-oxo-pyrrolo[2,3-d]pyrimidin-3-yl]methyl]piperidine-1-carbonyl]-3-phenyl-piperidine-1-carboxylate]	49.9	31.5
O=C([C@@H]1CCNC[C@H]1c1ccccc1)N1CCC(O)(Cn2cnc3c(ccn3-c3ccccc3)c2=O)CC1 [EXAMPLE 101, 3-[[4-hydroxy-1-[(3R,4R)-3-phenylpiperidine-4-carbonyl]-4-piperidyl]methyl]-7-phenyl-pyrrolo[2,3-d]pyrimidin-4-one]	31.6	272
COc1ccc(-n2ccc3c(=O)n(CC4(O)CCN(C(=O)[C@@H]5CCNC[C@H]5c5ccccc5)CC4)cnc32)cc1 [EXAMPLE 135, 3-[[4-hydroxy-1-[(3R,4R)-3-phenylpiperidine-4-carbonyl]-4-piperidyl]methyl]-7-(4-methoxyphenyl)pyrrolo[2,3-d]pyrimidin-4-one]	28.7	135
CN1CC[C@@H](C(=O)N2CCC(O)(Cn3cnc4c(ccn4-c4ccc(Cl)cc4)c3=O)CC2)[C@H](c2ccccc2)C1 [EXAMPLE 153, 7-(4-chlorophenyl)-3-[[4-hydroxy-1-[(3R,4R)-1-methyl-3-phenyl-piperidine-4-carbonyl]-4-piperidyl]methyl]pyrrolo[2,3-d]pyrimidin-4-one]	48.6	74.7
O=C([C@@H]1CCNC[C@H]1c1ccccc1)N1CCC(O)(Cn2cnc3c(cnn3-c3ccc4c(c3)OCCO4)c2=O)CC1 [EXAMPLE 165, 1-(2,3-dihydro-1,4-benzodioxin-6-yl)-5-[[4-hydroxy-1-[(3R,4R)-3-phenylpiperidine-4-carbonyl]-4-piperidyl]methyl]pyrazolo[3,4-d]pyrimidin-4-one]	19.6	300
CC(=O)N1CC[C@@H](C(=O)N2CCC(O)(Cn3cnc4c(ccn4-c4cccc(Cl)c4)c3=O)CC2)[C@H](c2ccccc2)C1 [EXAMPLE 180, 3-[[1-[(3R,4R)-1-acetyl-3-phenyl-piperidine-4-carbonyl]-4-hydroxy-4-piperidyl]methyl]-7-(3-chlorophenyl)pyrrolo[2,3-d]pyrimidin-4-one]	89	
CC(=O)N1CC[C@@H](C(=O)N2CCC(O)(Cn3cnc4c(ccn4-c4ccc(Cl)cc4)c3=O)CC2)[C@H](c2ccccc2)C1 [EXAMPLE 181, 3-[[1-[(3R,4R)-1-acetyl-3-phenyl-piperidine-4-carbonyl]-4-hydroxy-4-piperidyl]methyl]-7-(4-chlorophenyl)pyrrolo[2,3-d]pyrimidin-4-one]	74.2	
CC(C)(C)C(=O)N1CC[C@@H](C(=O)N2CCC(O)(Cn3cnc4c(ccn4-c4ccccc4)c3=O)CC2)[C@H](c2ccccc2)C1 [EXAMPLE 184, 3-[[1-[(3R,4R)-1-(2,2-dimethylpropanoyl)-3-phenyl-piperidine-4-carbonyl]-4-hydroxy-4-piperidyl]methyl]-7-phenyl-pyrrolo[2,3-d]pyrimidin-4-one]	83	
CC(C)(C)CC(=O)N1CC[C@@H](C(=O)N2CCC(O)(Cn3cnc4c(ccn4-c4ccccc4)c3=O)CC2)[C@H](c2ccccc2)C1 [EXAMPLE 187, 3-[[1-[(3R,4R)-1-(3,3-dimethylbutanoyl)-3-phenyl-piperidine-4-carbonyl]-4-hydroxy-4-piperidyl]methyl]-7-phenyl-pyrrolo[2,3-d]pyrimidin-4-one]	88.5	
